Results from BindingDB's records for doi:10.1021/jm960069a (University of Camerino, 1996).
pKi: −log10 of the molar value.

Molecular target: Alpha-1B adrenergic receptor (Mesocricetus auratus) (UniProt P18841)
Assay: Binding affinity towards Alpha-1B adrenergic receptor hamster smooth muscle using [3H]prazosin as radioligand

Chain of Alpha-1B adrenergic receptor (Mesocricetus auratus) (P18841 whole entry, looked up): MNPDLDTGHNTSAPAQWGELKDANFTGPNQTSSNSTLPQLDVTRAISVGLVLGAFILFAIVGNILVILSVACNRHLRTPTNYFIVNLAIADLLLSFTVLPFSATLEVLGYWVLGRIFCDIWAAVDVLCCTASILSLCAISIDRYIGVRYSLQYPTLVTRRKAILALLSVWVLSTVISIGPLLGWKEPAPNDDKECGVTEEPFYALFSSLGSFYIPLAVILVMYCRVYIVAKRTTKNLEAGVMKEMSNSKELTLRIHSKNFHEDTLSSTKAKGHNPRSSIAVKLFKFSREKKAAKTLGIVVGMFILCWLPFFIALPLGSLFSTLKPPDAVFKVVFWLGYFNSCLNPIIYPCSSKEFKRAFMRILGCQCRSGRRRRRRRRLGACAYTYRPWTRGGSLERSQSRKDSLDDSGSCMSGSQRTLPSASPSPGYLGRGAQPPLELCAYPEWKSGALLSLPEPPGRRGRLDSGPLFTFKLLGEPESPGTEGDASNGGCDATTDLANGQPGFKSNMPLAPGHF

pKi	SMILES
7.68	COc1cccc(OC)c1OCCNC[C@@H]1Oc2ccccc2O[C@H]1c1ccc(C)cc1 [[2-(2,6-Dimethoxy-phenoxy)-ethyl]-((2S,3S)-3-p-tolyl-2,3-dihydro-benzo[1,4]dioxin-2-ylmethyl)-amine]
7.29	COc1cccc(OC)c1OCCNCC1Oc2ccccc2OC1c1ccc(C)cc1 (configuration not stated) [[2-(2,6-Dimethoxy-phenoxy)-ethyl]-(3-p-tolyl-2,3-dihydro-benzo[1,4]dioxin-2-ylmethyl)-amine]
